Key:
[1] = system: human lung cancer cell lines (NCI-H226); experiment: MTT cytotoxicity assay, NCI-H226; type: cell-based; settings: for IC50: Homo sapiens, read-out: IC50 (concentration of 50% proliferation-inhibitory effect) NCI-H226, NCI-H226 cells, 48 h treatment, MTT, mean of three independent experiments; for potency in inhibiting proliferation of NCI-H226 human cancer cell line: summary statement on Table 1
Procedure: (§1) The human lung cancer cell lines (NCI-H226) and human renal cancer cell lines (A-498) were purchased from the ATCC (Manassas, Va.). The NCI-H226 and A498 cells were cultured in RPMI-1640 and DMEM medium (GIBCO) respectively, supplemented with 10% FBS, penicillin (100 unit/mL)/streptomycin (100 μg/mL) and 1% L-glutamine. All cells were grown in a humidified atmosphere containing 5% CO2 at 37° C. The cytotoxicity was assessed using 3-(4,5-dimethylthiazol-2-yl)-2,5-diphenyltetrazolium bromide (MTT) assay. NCI-H226 and A498 cells were seeded at 1×10^4 cells/well into 96-well plates. After 24 h incubation to allow for cell attachment, cells were treated with test compounds for 48 h. After treatment, cells were washed once with PBS and incubated with 1 mg/ml MTT (Sigma, St. Louis, Mo., USA) for 2 h. Then the formazan precipitate was dissolved in […] DMSO and the absorbance was measured on an ELISA reader at a best wavelength of 570 nm.

[2] = system: human renal cancer cell lines (A-498); experiment: MTT cytotoxicity assay, A498; type: cell-based; settings: for IC50: Homo sapiens, read-out: IC50 (concentration of 50% proliferation-inhibitory effect) A498, A498 cells, 48 h treatment, MTT, mean of three independent experiments; for potency in inhibiting proliferation of A498 human cancer cell line: summary statement on Table 1
Procedure: as §1

Row | melting point [°C] | SMILES | IC50 [1] [µM] | IC50 [2] [µM] | potency in inhibiting proliferation of NCI-H226 human cancer cell line [1] | potency in inhibiting proliferation of A498 human cancer cell line [2]
1 | 178 to 181 | OCc1ccc(-c2nn(-c3ccccc3F)c3cc[se]c23)o1 |  |  |  | 
2 | 136 to 138 | OCc1ccc(-c2nn(-c3ccccc3)c3[se]ccc23)o1 |  |  |  | 
3 | 144 to 147 | COC(=O)c1ccc(-c2nn(-c3ccccc3)c3cc[se]c23)o1 [Compound 34, 3-(5-Methoxycarbonyl-2-furyl)-1-phenylselenolo[3,2-c]-pyrazole] |  |  |  | 
4 | 155 to 157 | COC(=O)c1ccc(-c2nn(-c3ccccc3)c3cc(C)[se]c23)o1 [Compound 35, 3-(5-Methoxycarbonyl-2-furyl)-1-phenyl-5-methylselenolo-[3,2-c]pyrazole] |  |  |  | 
5 |  | COC(=O)c1ccc(-c2nn(-c3ccccc3F)c3cc[se]c23)o1 [Compound 39, 3-(5-Methoxycarbonyl-2-furyl)-1-(2-fluorophenyl)selenolo-[3,2-c]pyrazole] | > 100 | > 100 |  | 
6 |  | COC(=O)c1ccc(-c2nn(-c3ccc(F)cc3)c3cc[se]c23)o1 [Compound 40, 3-(5-Methoxycarbonyl-2-furyl)-1-(4-fluorophenyl)selenolo-[3,2-c]pyrazole] | > 100 | > 100 |  | 
7 |  | Cc1cccc(-n2nc(-c3ccc(CO)o3)c3[se]ccc32)c1 [Compound 44, 3-(5-Hydroxymethyl-2-furyl)-1-5-methyl-phenylselenolo[3,2-c]pyrazole] | 25 | 1.98 | significant potency | significant potency
8 | 234 to 237 | O=C(O)c1ccc(-c2nn(-c3ccccc3)c3cc[se]c23)o1 [Compound 48, 3-(5-Hydroxycarbonyl-2-furyl)-1-phenylselenolo[3,2-c]pyrazole] |  |  |  | 
9 | 236 to 239 | Cc1cc2c([se]1)c(-c1ccc(C(=O)O)o1)nn2-c1ccccc1 [Compound 49, 3-(5-Hydroxycarbonyl-2-furyl)-1-phenyl-5-methylselenolo[3,2-c]pyrazole] |  |  |  | 
10 | 130 to 131 | COC(=O)c1ccc(-c2nn(Cc3ccccc3)c3cc[se]c23)o1 [Compound 55, 1-Benzyl-3-(5-methoxycarbonyl-2-furyl)selenolo[3,2-c]-pyrazole] |  |  |  | 
11 | 142 to 145 | COC(=O)c1ccc(-c2nn(Cc3ccccc3)c3cc(C)[se]c23)o1 [Compound 56, 1-Benzyl-3-(5-methoxycarbonyl-2-furyl)-5-methylselenolo[3,2-c]pyrazole] |  |  |  | 
12 | 147 to 148 | Cc1cc2c([se]1)c(-c1ccc(CO)o1)nn2Cc1ccccc1 [Compound 58, 1-Benzyl-3-(5-hydroxymethyl-2-furyl)-5-methylselenolo[3,2-c]pyrazole] |  |  |  | 
13 | 243 to 244 | O=C(O)c1ccc(-c2nn(Cc3ccccc3)c3cc[se]c23)o1 [Compound 59, 1-Benzyl-3-(5-hydroxycarbonyl-2-furyl)selenolo[3,2-c]pyrazole] |  |  |  | 
14 | 165 to 166 | COC(=O)c1ccc(-c2nn(-c3ccccc3)c3cc[se]c23)cc1 [Compound 66, 1-Phenyl-3-(p-methoxycarbonylphenyl)selenolo[3,2-c]pyrazole] |  |  |  | 
15 | 150 to 153 | COC(=O)c1ccc(-c2nn(Cc3ccccc3)c3cc[se]c23)cc1 [Compound 67, 1-Benzyl-3-(p-methoxycarbonylphenyl)selenolo[3,2-c]pyrazole] |  |  |  | 
16 | 133 to 134 | OCc1ccc(-c2nn(-c3ccccc3)c3cc[se]c23)cc1 [Compound 68, 1-Phenyl-3-(p-hydroxymethylphenyl)selenolo[3,2-c]pyrazole] |  |  |  | 
17 | 158 to 160 | OCc1ccc(-c2nn(Cc3ccccc3)c3cc[se]c23)cc1 [Compound 69, 1-Benzyl-3-(p-hydroxymethylphenyl)selenolo[3,2-c]pyrazole] |  |  |  | 

Row | SMILES | melting point [°C] | IC50 [1] [µM] | IC50 [2] [µM] | potency in inhibiting proliferation of NCI-H226 human cancer cell line [1] | potency in inhibiting proliferation of A498 human cancer cell line [2]
18 | COC(=O)c1ccc(-c2nn(-c3ccccc3Cl)c3cc[se]c23)o1 [Compound 36, 3-(5-Methoxycarbonyl-2-furyl)-1-(2-chlorophenyl)selenolo-[3,2-c]pyrazole] | 134 to 136 | > 100 | > 100 |  | 
19 | COC(=O)c1ccc(-c2nn(-c3cccc(Cl)c3)c3cc[se]c23)o1 [Compound 37, 3-(5-Methoxycarbonyl-2-furyl)-1-(3-chlorophenyl)selenolo-[3,2-c]pyrazole] | 107 to 109 | > 100 | > 100 |  | 
20 | COC(=O)c1ccc(-c2nn(-c3ccc(Cl)cc3)c3cc[se]c23)o1 [Compound 38, 3-(5-Methoxycarbonyl-2-furyl)-1-(4-chlorophenyl)selenolo-[3,2-c]pyrazole] | 146 to 148 | > 100 | > 100 |  | 
21 | COC(=O)c1ccc(-c2nn(-c3ccccc3OC)c3cc[se]c23)o1 [Compound 41, 3-(5-Methoxycarbonyl-2-furyl)-1-(2-methoxyphenyl)selenolo-[3,2-c]pyrazole] | 72 to 76 | > 100 | > 100 |  | 
22 | COC(=O)c1ccc(-c2nn(-c3ccc(OC)cc3)c3cc[se]c23)o1 [Compound 42, 3-(5-Methoxycarbonyl-2-furyl)-1-(4-methoxyphenyl)selenolo-[3,2-c]pyrazole] | 89 to 92 | > 100 | > 100 |  | 
23 | OCc1ccc(-c2nn(Cc3ccccc3)c3cc[se]c23)o1 [Compound 57, 1-Benzyl-3-(5-hydroxymethyl-2-furyl)selenolo[3,2-c]pyrazole] | 126 to 129 | 1.4 | 0.4 | significant potency | significant potency
24 | O=C(O)CCC(=O)OCc1ccc(-c2nn(Cc3ccccc3)c3cc[se]c23)o1 [Compound 60, Succinic Acid mono-[5-(1-benzyl-selenolo[3,2-c]pyrazol-3-yl)furan-2-yl]methyl ester] | 111 to 114 | 2.2 | 0.8 | significant potency | significant potency
25 | COC(=O)c1ccc(-c2nn(-c3ccccc3)c3[se]ccc23)o1 [Compound 78, 3-(5-Methoxycarbonyl-2-furyl)-1-phenylselenolo[2,3-c]-pyrazole] | 167 to 169 | > 100 | > 100 |  | 
26 | COC(=O)c1ccc(-c2nn(Cc3ccccc3)c3[se]ccc23)o1 [Compound 79, 1-Benzyl-3-(5-methoxycarbonyl-2-furyl)selenolo[2,3-c]pyrazole] | 121 to 123 | > 100 | > 100 |  | 
27 | OCc1ccc(-c2nn(Cc3ccccc3)c3[se]ccc23)o1 [Compound 81, 1-Benzyl-3-(5-Hydroxymethyl-2-furyl)selenolo[2,3-c]pyrazole] | 130.2 to 131.3 |  | 0.14 | significant potency | significant potency
